Reference: patent US20140309419A1, “METHOD FOR ENHANCING THE THERMAL STABILITY OF IONIC COMPOUNDS” (Danmarks Tekniske Universite, priority 2011, published 2014)
Marks after values point to notes of the source that are not given here.

Key:
[1] = Thermal stability by TGA, inflection point method (TA2950 TGA, 5° C./min, dried air); type: physicochemical; conditions: not supported/neat
From the text: (§1) The term “upper operating temperature” as used herein refers to the highest temperature to which the ionic compound can be heated without undergoing thermal degradation. This temperature is usually and routinely measured by Thermo Gravimetric Analysis (TGA) and/or Differential Scanning calorimetry (DSC).

[2] = Thermal stability by TGA, T5% onset method (Mettler-Toledo TGA/DSC, 5° C./min, nitrogen); type: physicochemical; conditions: not supported/neat
From the text: as §1

[3] = Thermal stability by TGA, supported vs. unsupported, evaluation method not marked
Procedure: To test for such influence, adsorption experiments with butylmethylimidazolium acetate [BMIM][OAc] on four different porous silica types was carried out (FIG. 7a, 7b). The silicas had the following pore diameters: PG2000 (pore diameter 2000 Å), PG500 (pore diameter 500 Å), PG75 (pore diameter 75 Å) and MCM-41 (pore diameter 50 Å).
The silicas had the following pore diameters: PG2000 (pore diameter 2000 Å), PG500 (pore diameter 500 Å) and PG75 (pore diameter 75 Å).
Thermal stability was measured by using thermogravimetric analysis (TGA), with isocratic heating at 5° C. min^−1 under an inert nitrogen and/or dried air atmosphere. The decomposition temperatures were determined from both the T5% onset (onset temperature for 5% decomposition) in an isocratic TGA experiment, and from the inflection point (temperature at the inflection point of TGA curve, which indicates the point where the degradation rate is maximum). For T5% onset measurements, thermal stability was determined in a Mettler-Toledo Star^e TGA/DSC unit by heating from 25° C. to 800° C. with a heating rate of 5° C./min under nitrogen. For inflection point measurements, thermal stability was determined using a TA2950 TGA unit by heating from 25° C. to 800° C. with a heating rate of 5° C./min under dried air.

[4] = 10% (wt/wt) on PG75 silica (pore diameter 75 Å)
[5] = 10% (wt/wt) on PG500 silica (pore diameter 500 Å)
[6] = 10% (wt/wt) on PG2000 silica (pore diameter 2000 Å)

Structure (SMILES)	Thermal Stability (inflection point) [1]	enhancement of thermal stability vs. unsupported [3, 4]	enhancement of thermal stability vs. unsupported [3, 5]	enhancement of thermal stability vs. unsupported [3, 6]	also measured
CCCCC(CC)COC(=O)CC(C(=O)OCC(CC)CCCC)S(=O)(=O)O (centres unmarked) [Dioctylsulfosuccinic Acid [3], Dioctylsulfosuccinic Acid]	161.86^b ° C.				
CC(C)Cc1ccc(C(C)C(=O)O)cc1 (centres unmarked) [Ibuprofene (free acid), Ibuprofene]					Thermal Stability (T5% onset) [2]: 154.7^a ° C.
CC[N+](CC)(CC)CC.O=C(O)CNCP(=O)([O-])O [Tetraethylammonium Glyphosate [5], Tetraethylammonium Glyphosate]	149.76^b ° C.				
CCCCCCCCCCCCCCCC[N+](C)(C)C.Nc1nc2c(ncn2COCCO)c(=O)[n-]1 [Trimethylhexadecylammonium acyclovir [2], Trimethylhexadecylammonium Acyclovir]	188.60^b ° C.				
CCCCn1cc[n+](C)c1.[Cl-] [[BMIM][Cl], butylmethylimidazolium chloride]		no enhancement of thermal stability	no enhancement of thermal stability	no enhancement of thermal stability	
CC(=O)[O-].CCCCn1cc[n+](C)c1 [[BMIM][OAc], butylmethylimidazolium acetate]		significant enhancement of the thermal stability	no enhancement of thermal stability	no enhancement of thermal stability	enhancement of thermal stability vs. unsupported ([3]; 10% (wt/wt) on MCM-41 silica (pore diameter 50 Å)): significant enhancement of the thermal stability
